Data: patent publication US20230190660A1, “ENCAPSULATED PHARMACEUTICAL COMPOSITIONS, RELATED METHODS OF MAKING, AND RELATED METHODS OF TREATMENT” (PATH, priority 2021, published 2023)

How the values were obtained:
glucose levels [1] = assay: Confirmation study: glucose levels in rats, additional doses; assay type: in vivo; settings: subQ, 5 IU/kg
Source text: (§1) The present Example describes a) selection of the dosage presentation for the lead ion-pair and the dose (see TABLE 8, FIGS. 4 and 14A-14D) and b) validation of the lead ion-pair formulation in their ability to lower glucose levels upon oral administration of the formulations (see FIGS. 15A-15D). In part a) of the present Example, we compared the capsule and FDT presentation formats for both ion-pair formulations. We also included β-CD-encapsulated ion-pair complex to see whether the encapsulation of ion-pair within β-CD offers further improvement in absorption of insulin. Liquid insulin given subcutaneously (subQ) was used a comparator in both studies.

blood glucose levels = assay: Glucose lowering in STZ diabetic rodent model; assay type: in vivo, Sprague Dawley rodents; settings: SC
Experimental: Briefly, the male Sprague Dawley rodents (200-250 grams) are fasted 4 hours before given 65 mg/kg intraperitoneal (IP) streptozotocin (STZ) to induce diabetes and randomized into treatment groups based on the post-STZ (˜1 week) baseline glucose levels (see TABLE 10). Only rodents with hyperglycemia (glycose levels […]) are used in the study. Rodents are housed on a 12-hour light/dark cycle with no more than 2 rats per cage depending on size and acclimatized for not less than 5 days. Blood glucose levels are measured using calibrated Glucocard Vital glycometers (Arkray, Minneapolis, Minn.) and levels are reported as mg/dL. For each timepoint, blood (<5 uL) is acquired from a tail snip and directly applied to a glucose test strip. Data for each quantitative timepoint is presented as the average+/−SEM (standard error of the mean). Differences between vehicle control and each treatment groups are determined by Student's t-test using GraphPad Prism (current version) with an alpha threshold of 0.05.
Insulin and blood glucose levels were measured before administration, at 30 minutes, 60 minutes, 90 minutes, 2 hours, 4 hours, 8 hours, and 24 hours after dosing.

[2] = Static gastrointestinal use testing (GUT) model, gastric fluid; settings: 30 minutes at 37° C.
Source text: The purpose of this evaluation was to test whether the bile-insulin ion-pair encapsulated within the resistant starch polymer is protected from pH and enzymatic degradation encountered in the gastrointestinal compartments. Since the in vivo feasibility of insulin FDTs is proposed in a diabetic rodent model, we scaled down the size of the FDTs based on limited size of the oral cavity in rats. We also included commercially available gelatin oral capsules fit for oral delivery to rats (FIGS. 12A and 12B). Biorelevant dissolution media simulating the pH and enzymatic conditions in the different sections of gastrointestinal tract, such as fasted state simulated gastric fluid (FASSFG), and intestinal fluid in the duodenum and jejunum (TABLE 7) were generated following the composition recipe reported by Jantratid et al. (2009).
Samples were incubated in the different fluid media maintained at 37° C. and at the 30-minute time point, removed and tested for insulin content. Unformulated insulin was used as a control for comparative evaluation (FIGS. 13A and 13B).

glucose levels [3] = assay: Pilot study: glucose levels in rats after oral ion-pair formulations or subQ insulin; assay type: in vivo; settings: subQ, 5 IU/kg
Source text: as §1

In the case of insulin, the “drop in glucose levels” value (glucose levels [1]; T=1 hour) is reported as about 80%, the glucose level (glucose levels [1]; T=1 hour (from 600 mg/dL)) is reported as about 100 mg/dL and the “time after administration within which glucose levels rise” value (blood glucose levels) is reported as at most 4 h. For the same substance, the glucose lowering effect (blood glucose levels; compared to diabetic rodent levels) was over 60%, the “degradation in the presence of gastric fluid” value [2] was “degraded almost completely” and the glucose levels (glucose levels [3]; late time point (T=8 hours), similar to T=0) was 600 mg/dL. For the same substance, the glucose level (glucose levels [3]; within the first hour (from 600 mg/dL)) was 100 mg/dL and the “lowering of glucose levels” value (glucose levels [3]; within the first hour of administration) was “about 80%”.
